Assay results reported in BindingDB's records for PubMed 10411589 (The University of Queensland, 1999).

Assays:
[1] = molecular target: Sodium-dependent noradrenaline transporter (Bos taurus, UniProt P51143)
[2] = molecular target: Norepinephrine transporter (Rattus norvegicus, UniProt Q9JIA2)
[3] = molecular target: Sodium-dependent noradrenaline transporter (Homo sapiens, UniProt P23975)
Sodium-dependent noradrenaline transporter (Homo sapiens, UniProt P23975), sequence (P23975 whole entry): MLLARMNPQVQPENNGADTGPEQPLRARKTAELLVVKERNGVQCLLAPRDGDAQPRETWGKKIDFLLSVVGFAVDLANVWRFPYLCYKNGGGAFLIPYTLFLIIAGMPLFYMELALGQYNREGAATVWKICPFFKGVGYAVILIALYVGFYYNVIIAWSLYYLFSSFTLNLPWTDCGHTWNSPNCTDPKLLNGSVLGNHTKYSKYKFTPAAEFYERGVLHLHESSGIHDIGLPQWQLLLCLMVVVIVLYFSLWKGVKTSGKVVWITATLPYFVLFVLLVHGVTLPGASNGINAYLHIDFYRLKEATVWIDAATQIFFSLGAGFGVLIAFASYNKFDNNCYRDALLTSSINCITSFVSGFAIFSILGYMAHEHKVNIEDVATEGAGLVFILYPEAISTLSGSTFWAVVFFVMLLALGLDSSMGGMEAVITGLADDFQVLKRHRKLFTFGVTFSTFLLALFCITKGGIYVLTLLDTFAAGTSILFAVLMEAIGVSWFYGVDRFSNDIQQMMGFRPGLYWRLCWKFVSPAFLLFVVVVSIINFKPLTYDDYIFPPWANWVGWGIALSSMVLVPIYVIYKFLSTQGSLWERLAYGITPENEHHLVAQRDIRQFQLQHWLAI

Sodium-dependent noradrenaline transporter (Bos taurus, UniProt P51143), sequence (P51143 whole entry): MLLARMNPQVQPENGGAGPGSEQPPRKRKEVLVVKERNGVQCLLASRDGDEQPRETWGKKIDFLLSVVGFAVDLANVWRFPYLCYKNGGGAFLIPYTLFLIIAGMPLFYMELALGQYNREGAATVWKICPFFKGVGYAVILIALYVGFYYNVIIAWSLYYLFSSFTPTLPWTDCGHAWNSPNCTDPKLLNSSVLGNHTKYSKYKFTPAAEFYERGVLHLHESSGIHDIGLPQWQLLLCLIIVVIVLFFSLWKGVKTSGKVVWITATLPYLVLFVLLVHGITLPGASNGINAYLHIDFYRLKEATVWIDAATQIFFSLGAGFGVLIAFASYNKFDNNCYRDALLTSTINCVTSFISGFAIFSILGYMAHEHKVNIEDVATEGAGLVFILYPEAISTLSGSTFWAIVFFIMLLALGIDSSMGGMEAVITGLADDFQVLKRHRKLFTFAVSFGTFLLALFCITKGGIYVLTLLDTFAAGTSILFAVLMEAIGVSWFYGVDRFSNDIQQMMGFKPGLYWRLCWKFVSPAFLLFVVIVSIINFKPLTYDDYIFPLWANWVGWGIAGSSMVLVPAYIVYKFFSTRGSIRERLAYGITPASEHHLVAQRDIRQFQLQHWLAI

| SMILES | Ki [1] [nM] | Ki [2] [nM] | Ki [3] [nM] |
| --- | --- | --- | --- |
| NCCc1ccc(O)c(O)c1 | 397 | 392 |  |
| CNCC(O)c1ccc(O)c(O)c1 (stereo not given) [EPINEPHRINE] | 5000 | 6500 | 3680 |
| C[n+]1ccc(-c2ccccc2)cc1 [NSC_39484] | 570 | 778 | 507 |

More lines, main results first:

| Ki [1] [nM] | Ki [2] [nM] | SMILES | Ki [3] [nM] |
| --- | --- | --- | --- |
| 93.6 |  | CN(C)CCCN1c2ccccc2CCc2ccccc21 |  |
|  | 5.74 | CNCCC(Oc1ccccc1OC)c1ccccc1 (stereo not given) [3-(2-methoxyphenoxy)-N-methyl-3-phenylpropan-1-amine] |  |
